In patent US6677309B1, “Anti-cancer drug aldehyde conjugate drugs with enhanced cytotoxicity compounds, compositions and methods” (University Technology Corporation, priority 1997, dated 2004):

Assays:
[1] = tested on: MCF-7/ADR cells; assay: In vitro cytotoxicity, colony formation by crystal violet assay, MCF-7/ADR; conditions: for fold higher cytotoxicity against MCF-7/ADR cells relative to the parent drug: relative to the respective parent drug
Description: The term IC50 as used herein refers to the concentration of drug which inhibits cell growth by 50%, i.e., 50% of cells are viable at the IC50 concentration relative to a no-drug control.
Cells were incubated with drug for 3 h in RPMI (Roswell Park Memorial Institute) 1640 media containing 10% fetal bovine serum and 1% DMSO. Plates, were developed using the crystal violet assay. […] In all cases percent survival was determined by the extent of colony formation six days after drug treatment.
All tissue culture materials were obtained from Gibco Life Technologies (Grand Island, N.Y.) unless otherwise stated. MCF-7 breast cancer cells were obtained from American Type Culture Collection (Rockville, Md.). […] Both cell lines were maintained in vitro by serial culture in phenol red-free RPMI Media 1640 supplemented with 10% fetal bovine serum (Gemini Bio-Products, Calbasas, Calif.), L-glutamine (2 mM), HEPES buffer (10 mM), penicillin (100 units/mL), and streptomycin (100 μg/mL). […] Cells were maintained at 37° C. in a humidified atmosphere of 5% CO2 and 95% air.
Cells were dissociated with trypsin-EDTA, counted, and suspended in growth media to a concentration of 5×10^3 cells/mL. Cell suspensions were dispensed in 200 μL aliquots into 96-well tissue culture plates. Plates were then incubated for 24 h at 37° C. in a humidified atmosphere of 5% CO2 and 95% air. The media was replaced with 180 μL of growth media prior to addition of the cytotoxic agents.
Concentrations were then corrected by measuring the solution absorbance at 480 nm (ε=11,500/mole anthracycline). The solutions were then serially diluted in DMSO to give a series of 100× working concentration solutions. For each concentration, the 100× solution was diluted 1:10 in serum-free RPMI Media 1640. 20 μL of the resulting […] solution was immediately added to the appropriate lane. Additionally, one lane was treated with 20 μL of 10% DMSO in serum-free RPMI (no drug) and one lane replaced with 200 μL of 1.5 M Tris buffer (no cells). The cells were incubated at 37° C. for 3 h. The drug solutions were removed and 200 μL of fresh growth media was added to each well.
The extent of colony formation was determined by use of a crystal violet staining assay (Gilles, R. J. et al. (1986), “Determination of cell number in monolayer cultures,” Anal. Biochem. 159:109-113; Reile, H. et al. (1990), “Computerized determination of growth kinetic curves and doubling times from cells in microcultures,” Anal. Biochem. 187:262-267). […] The cells were then stained with 75 μL of 0.1% crystal violet in deionized water for 30 min. […] The plates were blotted dry and 200 μL of 70% ethanol in water was added to each well to solublize the dye. The plates were stored at 4° C. until solubilization was complete (about 4 h). The optical density of each well was measured on an ELISA plate reader at 588 nm. Relative colony sizes were determined by comparison of the drug treated lanes to the control lanes.
MCF-7 breast cancer cells were obtained from American Type Culture Collection (Rockville, Md.). MCF-7/ADR adriamycin resistant breast cancer cells were a gift of Dr. William W. Wells (Michigan State University). Both cell lines were maintained in vitro by serial culture in phenol red-free RPMI Media 1640 supplemented with 10% fetal bovine serum (Gemini Bio-Products, Calbasas, Calif.), L-glutamine (2 mM), HEPES buffer ([…]), penicillin (100 units/mL), and streptomycin (100 μg/mL). […] Cells were maintained at 37° C. in a humidified atmosphere of 5% CO2 and 95% air.
These were then diluted 10× with autoclaved Millipore water.

[2] = Stability in DMSO and DMSO/water, NMR or HPLC; assay type: physicochemical
Description: Crystalline dimeric formaldehyde conjugate of daunorubicin (2.8 mg, 2.6 μmol) was dissolved in 500 μL of DMSO-d6 (stored over 3 A molecular sieves) and analyzed by 400 MHz, ^1H NMR. […] Upon addition of 25 μL of D2O to the 500 μL DMSO-d6 sample, the dimeric formaldehyde conjugate of daunorubicin reacted over a 24 h period to form an equilibrium mixture consisting of 67% dimeric formaldehyde conjugate of daunorubicin and 32% of an intermediate. Because of the complexity of the spectrum, a structure could not be assigned to the intermediate; however, the intermediate appeared to have an oxazolidine ring. Upon addition of 3 equiv of hydrochloric acid in 130 μL of deuterium oxide, hydrolysis to daunorubicin-HCl was complete. The hydrochloric acid solution was prepared by the addition of 10 μL of concentrated HCl to 990 μL of D2O. The formaldehyde released from the dimeric formaldehyde conjugate of daunorubicin was detected as its hydrate. The final product was identified as daunorubicin by comparison of the NMR spectrum with that of a sample of daunorubicin plus 3 equiv of HCl. Further, the final product was isolated by removal of all volatile components under vacuum (0.1 Torr), and its ^1H NMR spectrum was identical to that of daunorubicin-HCl.
Amorphous dimeric formaldehyde conjugate of daunorubicin, when worked up in methylene chloride, was stable in DMSO for at least 4 days. It hydrolyzed with added D2O and hydrochloric acid in a manner similar to that of the crystalline material. When worked up in chloroform, amorphous dimeric formaldehyde conjugate of daunorubicin had less stability in DMSO, presumably due to traces of HCl from the chloroform.
A 1.3 mg sample of N-acetyl-3′-N,4′-O-methylenedaunorubicin was dissolved in […] of DMSO and analyzed over time by HPLC. […] At this time, […] of water was added to the DMSO/N-acetyl monomeric formaldehyde conjugate of daunorubicin solution, establishing a 50:50 DMSO:water mixture (v/v). In this solution, the N-acetyl-3′-N,4′-O-methylenedaunorubicin remained 91% intact (9% degradation to daunorubicin) over a period of 6 days, based upon the HPLC analysis.
A pH 6 triethyl ammonium acetate solution containing 13.1 μmol of epidoxorubicin-HCl and 6.6 mmol of […] was allowed to react in the dark at 25° C. for 30 min. The mixture was then extracted with chloroform with vigorous stirring for 20 min. The chloroform solution was dried over sodium sulfate and the chloroform removed by rotary evaporation. The resulting dry solid was redissolved in 1.0 mL of chloroform. To this was added 10 mL of n-hexane. After 2 days, a large amount of precipitate had formed, which was washed with 3×5 mL of n-hexane, followed by 4×1 mL of water.
The sample was maintained at ambient temperature for 2 h; after this period no change in the spectrum was observed. […] A stock 122 mM solution of HCl in D2O was prepared by adding concentrated hydrochloric acid to D2O. […] Complete hydrolysis occurred upon addition of ca. 2-3 equiv of HCl. A similar experiment was performed using HCl in H2O. […] This solution was incubated at 37° C. for 24 h prior to NMR analysis.

SMILES	IC50 ([1]; read-out: IC50 Values, MCF-7-ADR, 3 h drug incubation in RPMI 1640, 10% fetal bovine serum, 1% DMSO, colony formation six days after treatment, fresh drug solution) [nM]	fold higher cytotoxicity against MCF-7/ADR cells relative to the parent drug [1]	share of conjugate in the equilibrium mixture ([2]; 25 μL D2O added to 500 μL DMSO-d6, over 24 h, NMR) [%]	time stable in DMSO ([2]; crystalline material in DMSO-d6 stored over molecular sieves, 1H NMR)	time stable in DMSO ([2]; dry DMSO / DMSO-d6, 1H NMR)	IC50 fold higher than a fresh solution ([1]; MCF-7/ADR, after 20 h in 90% H2O/10% DMSO at 37° C. or 20 h in DMSO at ambient temperature) [fold]	fold more toxic to resistant cells with respect to epidoxorubicin, conjugate in equilibrium with its hydrolysis products ([1]; MCF-7/ADR, hydrolysed equilibrium mixture)
COc1cccc2c1C(=O)c1c(O)c3c(c(O)c1C2=O)C[C@@](O)(C(C)=O)C[C@@H]3O[C@H]1C[C@H]2[C@H](OCN2CN2CO[C@@H]3[C@H](C)O[C@@H](O[C@H]4C[C@](O)(C(C)=O)Cc5c(O)c6c(c(O)c54)C(=O)c4c(OC)cccc4C6=O)C[C@@H]32)[C@H](C)O1 [DAUNF, bis(3′-N-(3′-N,4′-O-methylenedaunorubicinyl))methane]	5	200 fold	67	at least 14 h	at least 4 days	–	–
COc1cccc2c1C(=O)c1c(O)c3c(c(O)c1C2=O)CC(O)(C(=O)CO)CC3OC1CC2C(OCN3CN2COC2C(C)OC(OC4C[C@](O)(C(=O)CO)Cc5c(O)c6c(c(O)c54)C(=O)c4c(OC)cccc4C6=O)CC23)C(C)O1 (stereo partly drawn) [EPIF]	–	greater than 120 fold	–	–	at least 4 days	5	greater than 25 fold
